Drawing on PubChem BioAssay (NCI), this text covers GI50 and TGI for eight molecules.

SMILES strings stand for the structures. Where “and” joins values, the source holds several entries; their conditions need not be identical. Equal values may be shown once.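 These data come from cells grown in 96-well plates and exposed to compound for 48 hours at five concentrations. Here, GI50 denotes the concentration required for 50% inhibition of growth. TGI: total growth inhibition.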 Some results are limits rather than exact numbers.

Common to all, as to assay: inhibition of tumour cell growth, NCI panel, 48 h
For experiment [1], the system named is CCRF-CEM leukemia.
Experiment [2] concerns HCT-116 colon.
For experiment [3], the system named is M14 melanoma.
For experiment [4], the system named is NCI-H460 lung.
Experiment [5] concerns OVCAR-3 ovarian.
The subject of experiment [6] is PC-3 prostate.
Experiment [7] deals with SF-295 CNS.
The subject of experiment [8] is SK-MEL-5 melanoma.
Experiment [9] relates to U251 CNS.
For experiment [10], the system named is UACC-257 melanoma.

As for `COc1cc(OC)cc(-c2ccc(-c3ccc(C(=N)N)s3)s2)c1`, the GI50 was 1.24 µM and 0.277 µM in [1]; 0.318 µM in experiment [2]; 1.1 µM in experiment [3]; 0.482 µM in experiment [4]; 1.81 µM in experiment [5]; 1.42 µM in experiment [6]. In addition, the GI50 in experiment [7] was 1.65 µM; in [8], 1.41 µM; in experiment [9], 0.404 µM; in experiment [10], 1.77 µM. Besides, the TGI in [1] was 2.9 µM and 0.75 µM; in experiment [2], 1.22 µM; in experiment [3], 2.74 µM; in experiment [4] it was 1.79 µM; in experiment [5] it was 3.76 µM; in experiment [6], 2.93 µM. The TGI is 3.22 µM in experiment [7], 2.81 µM in experiment [8], 1.73 µM in [9] and 3.36 µM in experiment [10].
Consider `Nc1ccc(-c2ccc(Nc3cc(S(=O)(=O)O)c(N)c4c3C(=O)c3ccccc3C4=O)cc2)c(S(=O)(=O)O)c1`, for which the TGI in [1], in experiment [2], in experiment [3], in experiment [4], in experiment [5] and in experiment [6] was over 100 µM in each case. The TGI in [7], in experiment [8], in experiment [9] and in experiment [10] was over 100 µM throughout.
Consider `Cc1cc(Nc2cc(CN3CCOCC3)c3nc(C)c(Cc4ccc(Cl)cc4F)n3n2)n[nH]1`, for which the GI50 in experiment [1] was 0.59 µM; in experiment [2], 0.689 µM; in experiment [3], 1.83 µM; in experiment [4], 0.437 µM; in experiment [5] it was 3.24 µM; in [6], 2.07 µM. Also, the GI50 was 1.79 µM in experiment [7], 2.27 µM in [8], 1.52 µM in experiment [9] and 3.35 µM in experiment [10]. Moreover, the TGI in [1] worked out at 3.94 µM; in experiment [2], 2.65 µM; in experiment [3], 14.2 µM; in experiment [4], 6.63 µM; in experiment [5], 15.3 µM; in [6], 18.3 µM. Besides, the TGI in [7] amounted to 5.73 µM; in experiment [8] it was 8.72 µM; in experiment [9] it was 5.24 µM; in experiment [10] it was 16.2 µM.
Regarding `C/C(=C1/N=C(c2ccccc2)OC1=O)c1ccc(C)cc1`, the TGI in experiment [1], in experiment [2], in experiment [3], in experiment [4], in experiment [5] and in [6] was over 100 µM each time. Moreover, the TGI in [7], in experiment [8], in [9] and in experiment [10] was over 100 µM throughout.
`S=c1nc[nH]c2nc[nH]c12`: the GI50 in experiment [1] was 0.972 µM; in experiment [2], 5.4 µM; in experiment [3], 0.418 µM and 3.92 µM; in experiment [4] it was 4.74 µM; in experiment [5] it was 0.762 µM and 3.66 µM; in [6] it was 7.96 µM and 18.7 µM. Further, the GI50 in experiment [7] is 1.76 µM and 12.3 µM; in experiment [8] it was 5.4 µM and 46.1 µM; in experiment [9] it was 19.3 µM and 72.4 µM; in experiment [10], > 100 µM and 43.7 µM. The TGI is > 100 µM and 310 µM in [1]; > 100 µM and 710 µM and > 750 µM in [2]; over 730 µM in experiment [4]; > 100 µM and 537 µM and > 750 µM in experiment [5]; over 750 µM in experiment [6]; > 100 µM and 735 µM and > 750 µM in experiment [7]. Also, the TGI was 62.2 µM and 285 µM and > 430 µM in [8]; > 100 µM and 719 µM and > 750 µM in experiment [9]; over 750 µM in experiment [10].
For the molecule `COc1ccc2c(O)c(/C=C3\N=Nc4ncccc43)oc2c1C[C@H]1CCNC[C@H]1F`, the GI50 in [1] was 0.227 µM; in experiment [2] it was 0.131 µM; in experiment [3], 0.589 µM; in experiment [4] it was 0.388 µM; in experiment [5], 0.431 µM; in [6], 0.267 µM. Moreover, the GI50 was 0.343 µM in experiment [7], 0.942 µM in experiment [8], 0.307 µM in experiment [9] and 2.66 µM in [10]. The TGI in [1] worked out at 0.876 µM; in experiment [2], 2.15 µM; in experiment [3], 3.64 µM; in experiment [4], 1.8 µM; in experiment [5] it was 11.4 µM; in experiment [6] it was 11.1 µM. For the same molecule, the TGI in experiment [7] worked out at 11.9 µM; in [8], 10.6 µM; in [9] it was 3.29 µM; in [10] it was 10.2 µM.
Regarding `COc1ccc(N2CCN(CN3CCN(c4ccc(OC)cc4)C3)C2)cc1`, the GI50 was 33.4 µM in [1]; 20.2 µM in experiment [2]; over 100 µM in experiment [3]; over 100 µM in experiment [4]; over 100 µM in experiment [5]; over 100 µM in experiment [6]. The GI50 in experiment [7], in [8], in experiment [9] and in [10] was over 100 µM each time. In addition, the TGI in [1] was over 100 µM; in [2], 50 µM; in experiment [3] it was over 100 µM; in [4], over 100 µM; in experiment [5] it was over 100 µM; in [6], over 100 µM. Moreover, the TGI in experiment [7], in experiment [8], in experiment [9] and in [10] was over 100 µM each time.
As to `C=CC(=O)NCCOc1cccc(Nc2cc(NCCCNC(=O)C3CCC3)c(Br)cn2)c1`, the GI50 in experiment [1] was 1.04 µM; in experiment [2], 0.798 µM; in [3], 1.79 µM; in [4] it was 1.12 µM; in experiment [5] it was 0.836 µM; in experiment [6], 1.3 µM. Moreover, the GI50 in experiment [7] was 1.34 µM; in [8], 1.39 µM; in experiment [9], 0.851 µM; in [10], 3.34 µM. Further, the TGI in [1] is over 25 µM; in experiment [2] it was over 25 µM; in experiment [3], 7.86 µM; in experiment [4], 4.53 µM; in [5], 3.75 µM; in experiment [6] it was 11 µM. The TGI in experiment [7] was 23.4 µM; in experiment [8], 5.24 µM; in [9], 18.7 µM; in [10] it was over 25 µM.
